{
  "source": "patent US20070042971A1",
  "about": "“Crystalline compound of 4'-demethyl-4'-phosphate-2\", 3\"-bispentafluorophenoxy-acetyl-4\", 6\"-ethylidene-beta-d-epipodophyllotoxin glucoside either in its free form or solvated with ethanol” (Pierre Fabre Medicament, priority 2003, published 2007)",
  "key": {"[1]": {"conditions": "cited from earlier work"}, "P388 leukemia [2]": {"tested_on": "P388 leukemia"}, "[3]": {"conditions": "powdered form; for % of degradation products after 1 month at 30° C. with 75% relative humidity: open bottle"}, "[4]": {"assay": "Solubility in water and ethanol", "format": "physicochemical"}, "P388 leukemia [5]": {"tested_on": "P388 leukemia", "conditions": "mice implanted with the P388 leukemia model; cited from earlier work"}, "[6]": {"conditions": "listed as hemiethanolate compound of formula 3 in crystalline form"}},
  "note": "Entries after “also recorded” stand apart in the source; their conditions may differ. Where two headings read alike, the source gives them in different places.",
  "data": [
    {"molecule": "COc1cc([C@@H]2c3cc4c(cc3[C@@H](O[C@@H]3O[C@@H]5CO[C@@H](C)O[C@H]5[C@H](O)[C@H]3O)[C@H]3COC(=O)[C@H]23)OCO4)cc(OC)c1OP(=O)(O)O", "note": "[Etopophos]", "values": [
      {"measurement": "solubility in water", "setting": "[1]", "value": 100, "unit": "mg/mL"}
    ]},
    {"molecule": "hemiethanolate of 4′-demethylepipodophyllotoxin 2″,3″-bispentafluoro-phenoxyacetyl-4″,6″-ethylidene-β-D-glucoside 4′-phosphate", "values": [
      {"measurement": "in vivo antitumor activity (in words)", "setting": "P388 leukemia [2]; P388 leukemia model, overall, listed as compound of formula 3 in crystalline form", "value": "high-level antitumor activity"},
      {"measurement": "in vivo antitumor activity (in words)", "setting": "P388 leukemia [2]; P388 leukemia model, overall, listed as hemiethanolate of formula 3", "value": "exhibits the required pharmacological activity"},
      {"measurement": "prolongation of the survival of the animals", "setting": "P388 leukemia [2]; dose 40 mg/kg", "value": 43, "unit": "%"},
      {"measurement": "T/C values (%)", "setting": "P388 leukemia [2]; dose 40 mg/kg, single intraperitoneal injection on day 1, median survival treated/control x 100", "value": 143, "unit": "%"},
      {"measurement": "T/C values (%)", "setting": "P388 leukemia [2]; dose 80 mg/kg, single intraperitoneal injection on day 1, median survival treated/control x 100", "value": 143, "unit": "%"},
      {"measurement": "prolongation of the survival of the animals", "setting": "P388 leukemia [2]; dose 160 mg/kg", "value": 229, "unit": "%"},
      {"measurement": "T/C values (%)", "setting": "P388 leukemia [2]; dose 160 mg/kg, single intraperitoneal injection on day 1, median survival treated/control x 100", "value": 329, "unit": "%"},
      {"measurement": "% of degradation products after 1 month at 30° C. with 75% relative humidity", "setting": "[3]", "value": 1.8, "unit": "%"},
      {"measurement": "% of degradation products after 1 month at 30° C. with 75% relative humidity", "setting": "[3]; [6]", "value": 1.8, "unit": "%"},
      {"measurement": "% of degradation products after 1 month at 40° C. in a closed bottle", "setting": "[3]", "value": 1.5, "unit": "%"},
      {"measurement": "% of degradation products after 1 month at 40° C. in a closed bottle", "setting": "[3]; [6]", "value": 1.5, "unit": "%"}
    ]},
    {"molecule": "COc1cc(C2c3cc4c(cc3[C@@H](OC3OC5COC(C)OC5C(OC(=O)COc5c(F)c(F)c(F)c(F)c5F)C3OC(=O)COc3c(F)c(F)c(F)c(F)c3F)[C@H]3COC(=O)C23)OCO4)cc(OC)c1OP(=O)(O)O", "note": "(stereo partly drawn) [Compound of formula 2 in amorphous form, 4′-demethylepipodophyllotoxin 2″,3″-bispentafluoro-phenoxyacetyl-4″,6″-ethylidene-β-D-glucoside 4′-phosphate]", "values": [
      {"measurement": "antitumor activity (in words)", "setting": "P388 leukemia [2]; mouse, in vivo", "value": "does not induce any significant antitumor activity"},
      {"measurement": "in vivo antitumor activity (in words)", "setting": "P388 leukemia [2]; mouse, in vivo", "value": "did not have the in vivo activity"},
      {"measurement": "T/C values (%)", "setting": "P388 leukemia [2]; mouse, in vivo, ip, 40 mg/kg", "value": 100, "unit": "%"},
      {"measurement": "T/C values (%)", "setting": "P388 leukemia [2]; mouse, in vivo, ip, 80 mg/kg", "value": 114, "unit": "%"},
      {"measurement": "T/C values (%)", "setting": "P388 leukemia [2]; mouse, in vivo, ip, 160 mg/kg", "value": 157, "unit": "%"},
      {"measurement": "solubility in ethanol (in words)", "setting": "[4]; ethanol", "value": "soluble"},
      {"measurement": "solubility in water (in words)", "setting": "[4]; water", "value": "is not"}
    ]},
    {"molecule": "4′-demethylepipodophyllotoxin 2″,3″-bispentafluoro-phenoxyacetyl-4″,6″-ethylidene-β-D-glucoside 4′-phosphate [Compound of formula 1]", "values": [
      {"measurement": "stability on conservation", "setting": "conserved at 4° C. and, a fortiori, at ambient temperature", "value": "degrades over time"},
      {"measurement": "stability", "setting": "usual conditions of neutral and acid pH and of temperature", "value": "stable"},
      {"measurement": "survival", "setting": "P388 leukemia [5]", "value": "long survival"}
    ]},
    {"molecule": "COc1cc(C2c3cc4c(cc3[C@@H](OC3OC5COC(C)OC5C(OC(=O)COc5c(F)c(F)c(F)c(F)c5F)C3OC(=O)COc3c(F)c(F)c(F)c(F)c3F)[C@H]3COC(=O)C23)OCO4)cc(OC)c1OP(=O)(O)O", "note": "(stereo partly drawn) [Crystalline formula 2, 4′-demethylepipodophyllotoxin 2″,3″-bispentafluorophenoxyacetyl-4″,6″-ethylidene-β-D-glucoside 4′-phosphate]", "values": [
      {"measurement": "in vivo antitumor activity (in words)", "setting": "P388 leukemia [2]; mouse, in vivo", "value": "exhibits the required pharmacological activity; also recorded: high-level antitumor activity"},
      {"measurement": "prolongation of the survival of the animals", "setting": "P388 leukemia [2]; mouse, in vivo, 40 mg/kg", "value": 43, "unit": "%"},
      {"measurement": "prolongation of the survival of the animals", "setting": "P388 leukemia [2]; mouse, in vivo, 160 mg/kg", "value": 200, "unit": "%"},
      {"measurement": "T/C values (%)", "setting": "P388 leukemia [2]; mouse, in vivo, ip, 40 mg/kg", "value": 143, "unit": "%"},
      {"measurement": "T/C values (%)", "setting": "P388 leukemia [2]; mouse, in vivo, ip, 80 mg/kg", "value": 157, "unit": "%"},
      {"measurement": "T/C values (%)", "setting": "P388 leukemia [2]; mouse, in vivo, ip, 160 mg/kg", "value": 300, "unit": "%"}
    ]}
  ]
}
